Values after ≈ are worked out from the molar mass of the structure shown. Residues, ends and D or L forms follow the SMILES beside them.
Key:
E. coli CCUG 70662 = tested on: E. coli CCUG 70662
Method: (§1) The bacterial strains tested were E. coli ATCC 25922, E. coli […], and E. coli NR-698. The MIC assays followed the CLSI guidelines. Overnight cultures and MIC assays were performed in MHBII (212322, Becton, Dickson and Company, Sparks, MD, USA). In addition, E. coli […] was tested after cultivation with 4 µg/mL of colistin to induce alternation in surface charge.
(§2) The antimicrobial activity of the five cyclic cationic AMPs was determined against S. aureus, P. aeruginosa, and three strains of E. coli: ATCC 25922, LPS colistin-resistant strain CCUG 70662, and LPS deficient strain NR 698 (Table 1). CCUG 70662 was cultivated in two conditions, both in the absence (−) and in the presence (+) of colistin (4 µg/mL). Resistance development can be monitored by measuring changes in the ζ-potential, reflecting the overall charge of the bacteria. […] In the NR 698 strain, translocation of LPS from the periplasmic space to the outer leaflet is hindered.

E. coli NR 698 = details: LPS deficient strain; CLSI guidelines, MHBII
Method: as §1, §2

[1] = SPR partitioning into immobilized liposomes; format: binding, E. coli; details: DMPC liposomes with 10% LPS versus DMPC and DMPC:PG
Method: The large unilamellar liposomes of DMPC and DMPC:PG (95:5) were prepared for the SPR experiment using standard methods. In brief, lipid mixtures were weighted from dry powder (Avanti, USA) and dissolved in 3:1 dichloromethane:methanol mixtures. The organic mixture was dried in a vacuum rotavapor to form a lipid film which was hydrated to 20 mM total concentration of lipids (for DMPC and DMPC:PG mixture) by adding 10 mM HEPES buffer pH 7.4 with 150 mM NaCl. For DMPC:LPS mixtures, dried LPS was dissolved in water and mixed with DMPC dissolved in dichloromethane. Isopropanol was added to the mixture until only one phase—dichloromethane:isopropanol:water was formed. Dry film was prepared and then hydrated using the same method as above to a concentration of 18 mM of DMPC and 10% (w/w) LPS in HEPES buffer. […]
The SPR experiments were performed at room temperature using the L1 chip and T200 Biacore instrument (GE Healthcare, Chicago, IL, USA). […] KD was obtained Using Equation (1) from a standard steady-state fit:(1) RU=RUMAX/1+KD/[P]+off, where RU is measured SPR response; RUMAX is RU response during saturation; [P] is peptide concentration; and off is offset of response. […]
SPR is emerging as the method of choice for measuring the partitioning of small compounds into lipid bilayers. […] From the estimated KD and the measured koff values, the association rate kon can be calculated (Equation (5)). […]

P. aeruginosa ATCC 27853 = details: CLSI guidelines, MHBII; cited from earlier work
Method: Table 1 MIC and ζ potentials for the tested peptides against P. aeruginosa, S. aureus, and the three E. coli strains: ATCC 25922, LPS deficient—NR 698, and colistin-resistant CCUG 70662, which was tested after cultivation with (+) and without (−) 4 µg/mL of colistin, which caused a decrease of negative charge of the cell wall. MIC values for P. aeruginosa, S. aureus, and E. coli ATCC 25922 are rep | column: MIC (µg/mL) / P. aeruginosa ATCC 27853

S. aureus ATCC 9144 = details: CLSI guidelines, MHBII; cited from earlier work
Method: Table 1 MIC and ζ potentials for the tested peptides against P. aeruginosa, S. aureus, and the three E. coli strains: ATCC 25922, LPS deficient—NR 698, and colistin-resistant CCUG 70662, which was tested after cultivation with (+) and without (−) 4 µg/mL of colistin, which caused a decrease of negative charge of the cell wall. MIC values for P. aeruginosa, S. aureus, and E. coli ATCC 25922 are rep | column: MIC (µg/mL) / S. aureus ATCC 9144

E. coli ATCC 25922 = details: CLSI guidelines, MHBII; cited from earlier work
Method: Table 1 MIC and ζ potentials for the tested peptides against P. aeruginosa, S. aureus, and the three E. coli strains: ATCC 25922, LPS deficient—NR 698, and colistin-resistant CCUG 70662, which was tested after cultivation with (+) and without (−) 4 µg/mL of colistin, which caused a decrease of negative charge of the cell wall. MIC values for P. aeruginosa, S. aureus, and E. coli ATCC 25922 are rep | column: MIC (µg/mL) / E. coli ATCC 25922

[2] = SPR, L1 chip, Biacore T200, room temperature, DMPC liposomes, 10 mM HEPES pH 7.4, 150 mM NaCl, steady-state fit; cited from earlier work
Source text: Introducing 5% of a negatively charged component (DMPG) to the liposomes doubled the KP of all peptides except c(WKWKWK), where the increase was less substantial.

CC(C)C[C@@H]1NC(=O)[C@@H](CCCNC(=N)N)NC(=O)[C@H](CCCCN)NC(=O)[C@H](CC(N)=O)NC(=O)[C@@H](Cc2c[nH]c3ccccc23)NC(=O)[C@H](Cc2c[nH]c3ccccc23)NC1=O [c(LWwNKr)] (HELM PEPTIDE1{L.W.[dW].N.K.[dR]}$PEPTIDE1,PEPTIDE1,1:R1-6:R2$$$V2.0)
MIC E. coli CCUG 70662+ (E. coli CCUG 70662): >250 µg/mL | MIC E. coli CCUG 70662− (E. coli CCUG 70662): >250 µg/mL | MIC E. coli NR 698 (E. coli NR 698): 32 µg/mL (≈ 36.2 µM) | Increase in KP with DMPC:LPS compared to the DMPC and DMPC:PG constructs [1]: four-fold | MIC P. aeruginosa ATCC 27853 (P. aeruginosa ATCC 27853): >250 µg/mL | MIC S. aureus ATCC 9144 (S. aureus ATCC 9144): >250 µg/mL | MIC E. coli ATCC 25922 (E. coli ATCC 25922): >250 µg/mL | Partitioning constant KP [2]: 278

NCCCC[C@@H]1NC(=O)[C@H](CCCCN)NC(=O)[C@H](Cc2c[nH]c3ccccc23)NC(=O)[C@H](Cc2c[nH]c3ccccc23)NC(=O)[C@H](Cc2c[nH]c3ccccc23)NC(=O)[C@H](CCCCN)NC1=O [c(WWWKKK)] (HELM PEPTIDE1{W.W.W.K.K.K}$PEPTIDE1,PEPTIDE1,1:R1-6:R2$$$V2.0)
MIC E. coli CCUG 70662+ (E. coli CCUG 70662): 4 µg/mL (≈ 4.24 µM) | MIC E. coli CCUG 70662− (E. coli CCUG 70662): 4 µg/mL (≈ 4.24 µM) | MIC E. coli NR 698 (E. coli NR 698): 2 µg/mL (≈ 2.12 µM) | MIC P. aeruginosa ATCC 27853 (P. aeruginosa ATCC 27853): 32 µg/mL (≈ 33.9 µM) | MIC S. aureus ATCC 9144 (S. aureus ATCC 9144): 32 µg/mL (≈ 33.9 µM) | MIC E. coli ATCC 25922 (E. coli ATCC 25922): 8 µg/mL (≈ 8.48 µM)

NCCCC[C@@H]1NC(=O)[C@H](Cc2c[nH]c3ccccc23)NC(=O)[C@H](CCCCN)NC(=O)[C@H](Cc2c[nH]c3ccccc23)NC(=O)[C@H](CCCCN)NC(=O)[C@H](Cc2c[nH]c3ccccc23)NC1=O [c(WKWKWK)] (HELM PEPTIDE1{W.K.W.K.W.K}$PEPTIDE1,PEPTIDE1,1:R1-6:R2$$$V2.0)
MIC E. coli CCUG 70662+ (E. coli CCUG 70662): 64 µg/mL (≈ 67.9 µM) | MIC E. coli CCUG 70662− (E. coli CCUG 70662): 64 µg/mL (≈ 67.9 µM) | MIC E. coli NR 698 (E. coli NR 698): 4 µg/mL (≈ 4.24 µM) | MIC P. aeruginosa ATCC 27853 (P. aeruginosa ATCC 27853): >250 µg/mL | MIC S. aureus ATCC 9144 (S. aureus ATCC 9144): 128 µg/mL (≈ 136 µM) | MIC E. coli ATCC 25922 (E. coli ATCC 25922): 64 µg/mL (≈ 67.9 µM)

N=C(N)NCCC[C@@H]1NC(=O)[C@H](CCCNC(=N)N)NC(=O)[C@H](Cc2c[nH]c3ccccc23)NC(=O)[C@H](Cc2c[nH]c3ccccc23)NC(=O)[C@H](Cc2c[nH]c3ccccc23)NC(=O)[C@H](CCCNC(=N)N)NC1=O [c(WWWRRR)] (HELM PEPTIDE1{W.W.W.R.R.R}$PEPTIDE1,PEPTIDE1,1:R1-6:R2$$$V2.0)
MIC E. coli CCUG 70662+ (E. coli CCUG 70662): 8 µg/mL (≈ 7.79 µM) | MIC E. coli CCUG 70662− (E. coli CCUG 70662): 8 µg/mL (≈ 7.79 µM) | MIC E. coli NR 698 (E. coli NR 698): 4 µg/mL (≈ 3.89 µM) | MIC P. aeruginosa ATCC 27853 (P. aeruginosa ATCC 27853): 16 µg/mL (≈ 15.6 µM) | MIC S. aureus ATCC 9144 (S. aureus ATCC 9144): 4 µg/mL (≈ 3.89 µM) | MIC E. coli ATCC 25922 (E. coli ATCC 25922): 8 µg/mL (≈ 7.79 µM) | Partitioning constant KP [2]: 6649
